Data taken from patent US10150728B2, “Alkylene derivatives” (Shionogi & Co., Ltd., priority 2013, dated 2018).

Biological target: recombinant human ACC2 (Homo sapiens (Human), UniProt O00763)
Assay: Measurement of inhibitory activity on human ACC2 (MALDI-TOF MS, acetyl CoA to malonyl CoA conversion)
Assay type: biochemical
Conditions: Tables 155-159
Source text: Preparation 1: Preparation of Recombinant Human ACC2
After a cDNA encoding human ACC2 (27 amino acid residue to 2458 amino acid residues from the N-terminus) was cloned from human kidney cDNA library (Clontech), human ACC2 gene containing His-tag sequence at 5′ terminus was inserted into pFastBac1 (Invitrogen). Recombinant baculovirus was generated using Bac-to-Bac baculovirus expression system (Invitrogen) according to the manufacturer's protocol. To express human ACC2, Sf-9 cells were infected with recombinant baculovirus. After infected cells were disrupted, the filtrated lysate was subjected to Ni-affinity chromatography and anion-exchange chromatography. The fractions containing human ACC2 protein were pooled as recombinant human ACC2 solution.
The Measurement of Inhibitory Activity on Human ACC1 and the ACC2
Recombinant human ACC1 and recombinant human ACC2, which were prepared by the method mentioned above, were preincubated with assay buffer solution (50 mM HEPES-KOH (pH 7.4), 10 mM magnesium chloride, 6-10 mM potassium citrate, 4 mM reduced form of glutathione, 1.5 mg/ml bovine serum albumin) for one hour. Then, 0.2 μL of each this invention compound solution (in DMSO) were dispensed to 384-well microplate, 5 μL of the preincubated enzyme solution and 5 μL of substrate solution (50 mM HEPES-KOH (pH 7.4), 1 mM ATP, 0.8 mM acetyl CoA and 25-50 mM potassium bicarbonate) were added to microplate. After centrifugation and shaking, the reaction mixtures were incubated in a humidified box at room temperature for 1 to 3 hours. After the incubation, the enzyme reactions were stopped by the addition of EDTA. Then, after the samples were cocrystallized with CHCA (α-cyano-4-hydroxy cinnamic acid) matrices on MALDI target plate, by using the matrix assist laser […] time-of-flight mass spectrometer (MALDI-TOF MS), samples were measured in reflector negative mode. Deprotonated ions of acetyl CoA (AcCoA) of substrate and malonyl CoA (MalCoA) of the reaction product were detected, then, the conversion rates of acetyl CoA to malonyl CoA was calculated by the intensity of [MalCoA-H]−/(Intensity of [MalCoA-H]−+Intensity of [AcCoA-H]−) using each signal strength. […] In addition, potassium citrate concentrations in assay buffer solution, potassium hydrogen carbonate concentrations in substrate solution and incubation time were adjusted by each lot of enzyme.

Chain of recombinant human ACC2 (O00763 27-2458): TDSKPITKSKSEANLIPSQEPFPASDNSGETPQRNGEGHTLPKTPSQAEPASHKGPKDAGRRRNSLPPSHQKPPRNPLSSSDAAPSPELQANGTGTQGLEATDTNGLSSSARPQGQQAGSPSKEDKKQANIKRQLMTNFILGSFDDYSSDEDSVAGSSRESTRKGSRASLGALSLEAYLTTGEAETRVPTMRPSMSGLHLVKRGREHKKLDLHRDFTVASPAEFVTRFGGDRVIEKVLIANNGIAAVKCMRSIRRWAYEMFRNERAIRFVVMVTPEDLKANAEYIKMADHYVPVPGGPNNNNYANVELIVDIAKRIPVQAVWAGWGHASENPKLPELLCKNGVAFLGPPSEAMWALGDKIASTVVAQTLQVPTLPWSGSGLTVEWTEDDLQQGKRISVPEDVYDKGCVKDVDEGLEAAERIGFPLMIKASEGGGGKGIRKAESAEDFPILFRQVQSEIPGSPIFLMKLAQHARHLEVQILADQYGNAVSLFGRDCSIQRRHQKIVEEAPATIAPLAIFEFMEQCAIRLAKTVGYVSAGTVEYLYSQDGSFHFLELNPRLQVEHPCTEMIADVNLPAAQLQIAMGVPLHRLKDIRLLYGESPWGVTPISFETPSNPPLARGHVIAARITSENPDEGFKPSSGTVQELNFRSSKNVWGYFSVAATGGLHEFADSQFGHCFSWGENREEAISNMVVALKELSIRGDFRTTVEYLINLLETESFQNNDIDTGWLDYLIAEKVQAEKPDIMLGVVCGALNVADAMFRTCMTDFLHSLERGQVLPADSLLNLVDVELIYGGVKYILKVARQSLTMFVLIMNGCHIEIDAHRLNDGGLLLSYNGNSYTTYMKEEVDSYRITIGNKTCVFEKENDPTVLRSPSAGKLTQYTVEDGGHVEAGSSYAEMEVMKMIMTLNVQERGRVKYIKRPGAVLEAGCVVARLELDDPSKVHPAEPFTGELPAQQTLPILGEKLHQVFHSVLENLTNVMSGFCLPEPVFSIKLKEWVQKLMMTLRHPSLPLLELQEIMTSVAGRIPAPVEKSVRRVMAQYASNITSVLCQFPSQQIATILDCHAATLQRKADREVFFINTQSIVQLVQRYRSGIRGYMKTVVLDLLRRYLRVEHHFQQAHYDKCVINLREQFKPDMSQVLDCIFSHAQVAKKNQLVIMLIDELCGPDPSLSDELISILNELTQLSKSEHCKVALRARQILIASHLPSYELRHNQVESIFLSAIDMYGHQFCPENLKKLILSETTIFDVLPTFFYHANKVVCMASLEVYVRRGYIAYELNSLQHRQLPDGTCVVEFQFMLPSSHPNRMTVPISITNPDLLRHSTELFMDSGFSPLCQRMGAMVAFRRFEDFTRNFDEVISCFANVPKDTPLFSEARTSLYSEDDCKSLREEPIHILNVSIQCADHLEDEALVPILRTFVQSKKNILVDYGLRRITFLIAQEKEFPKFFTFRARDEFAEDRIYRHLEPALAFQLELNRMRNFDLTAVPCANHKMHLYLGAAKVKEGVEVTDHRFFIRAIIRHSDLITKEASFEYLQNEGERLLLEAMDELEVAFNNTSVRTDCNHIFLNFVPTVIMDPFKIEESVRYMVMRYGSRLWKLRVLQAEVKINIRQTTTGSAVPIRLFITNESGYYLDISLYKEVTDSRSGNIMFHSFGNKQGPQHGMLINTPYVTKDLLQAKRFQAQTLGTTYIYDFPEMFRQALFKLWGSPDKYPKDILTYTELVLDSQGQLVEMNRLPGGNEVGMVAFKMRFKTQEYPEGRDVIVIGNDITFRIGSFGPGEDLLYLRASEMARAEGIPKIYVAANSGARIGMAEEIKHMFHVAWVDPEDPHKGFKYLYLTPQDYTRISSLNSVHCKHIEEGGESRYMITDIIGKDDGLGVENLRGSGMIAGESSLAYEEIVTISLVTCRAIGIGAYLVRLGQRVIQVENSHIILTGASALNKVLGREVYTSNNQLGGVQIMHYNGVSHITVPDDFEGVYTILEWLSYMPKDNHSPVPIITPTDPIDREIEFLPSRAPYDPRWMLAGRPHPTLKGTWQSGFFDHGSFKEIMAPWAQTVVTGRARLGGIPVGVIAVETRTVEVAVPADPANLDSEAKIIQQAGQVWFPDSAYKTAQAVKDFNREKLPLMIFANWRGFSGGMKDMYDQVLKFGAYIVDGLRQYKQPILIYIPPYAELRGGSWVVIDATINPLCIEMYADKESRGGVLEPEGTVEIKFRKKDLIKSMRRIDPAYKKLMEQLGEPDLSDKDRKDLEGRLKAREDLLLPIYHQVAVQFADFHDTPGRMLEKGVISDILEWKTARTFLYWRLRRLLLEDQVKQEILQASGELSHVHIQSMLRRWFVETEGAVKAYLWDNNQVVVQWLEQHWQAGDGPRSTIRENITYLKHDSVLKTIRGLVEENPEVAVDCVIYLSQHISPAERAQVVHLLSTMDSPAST

First: C[C@@H](CO[C@H]1CC[C@H](Oc2ccc3nc(C(C)(F)F)sc3c2F)CC1)NS(C)(=O)=O [Compound I-142]
Second: C[C@@H](CO[C@H]1CC[C@H](Oc2ccc3nc(C(C)(F)F)sc3c2F)CC1)NC(N)=O [Compound I-158]
The IC50 of the first is 3.8-fold higher: 181 nM for the first, 48 nM for the second.

First: C[C@@H](CO[C@H]1CC[C@H](Oc2ccc3nc(C(C)(F)F)sc3c2F)CC1)NC(=O)CO [Compound I-143]
Second: C[C@@H](CO[C@H]1CC[C@H](Oc2ccc3nc(C(C)(F)F)sc3c2F)CC1)NC(=O)C1COC1 [Compound I-166]
The IC50 of the first is 4-fold higher: 120 nM for the first, 30 nM for the second. The second is the more potent here.

Compared with `CC(=O)N[C@@H](C)CO[C@H]1C[C@](F)(COc2ccc3nc(C(C)C)sc3n2)C1` [Compound I-144], `CC(=O)N[C@@H](C)CO[C@H]1C[C@](F)(COc2cc3sc(C(C)C)nc3cn2)C1` [Compound I-174] is 7.3-fold higher in IC50: 127 nM for the first, 931 nM for the second. The first is the more potent here.

Going from `CCC(O)(CC)c1nc2ccc(O[C@H]3CC[C@H](OC[C@H](C)NC(C)=O)CC3)c(F)c2s1` [Compound I-145] to `CCN(C)c1nc2ccc(O[C@H]3CC[C@H](OC[C@H](C)NC(C)=O)CC3)c(F)c2s1` [Compound I-190], the IC50 falls from 190 nM to 73 nM (2.6-fold). The second is the more potent here.

First: CC(=O)N[C@@H](C)CO[C@H]1CC[C@H](Oc2ccc3nc(C4(O)CCCC4)sc3c2F)CC1 [Compound I-146]
Second: CC(=O)N[C@@H](C)CO[C@H]1CC[C@H](Oc2ccc3nc(N4CC(C)(O)C4)sc3c2F)CC1 [Compound I-187]
The IC50 of the first is 5.3-fold lower: 44 nM for the first, 234 nM for the second. The first is the more potent here.

Compared with `CC(=O)N[C@@H](C)CO[C@H]1C[C@H](COc2ccc3nc(C(C)(F)F)sc3n2)C1` [Compound I-147], `CC(=O)N[C@@H](C)CO[C@H]1C[C@H](COc2ccc3nc(C(C)(C)O)sc3n2)C1` [Compound I-171] is 13-fold higher in IC50: 12 nM for the first, 152 nM for the second.

Compared with `CC(=O)N[C@@H](C)CO[C@H]1C[C@H](COc2ccc3nc(C(C)(C)O)sc3c2)C1` [Compound I-148], `CC(=O)N[C@@H](C)CO[C@H]1C[C@H](COc2cc3sc(C(C)(C)O)nc3cc2F)C1` [Compound I-159] is 1.6-fold higher in IC50: 404 nM for the first, 641 nM for the second. The first is the more potent here.

Going from `CC(=O)N[C@@H](C)CO[C@H]1CC[C@H](Oc2ccc3nc(OCC(C)(C)C#N)sc3c2F)CC1` [Compound I-149] to `CC(=O)N[C@@H](C)CO[C@H]1CC[C@H](Oc2ccc3nc(OCC4(C#N)CC4)sc3c2F)CC1` [Compound I-150], the IC50 falls from 63 nM to 36 nM (1.8-fold).

`CC(=O)N[C@@H](C)CO[C@H]1C[C@H](COc2ccc3nc(OCC(F)F)sc3c2F)C1` [Compound I-151] and `CC(=O)N[C@@H](C)CO[C@H]1C[C@H](COc2ccc3nc(OCC(F)(F)F)sc3c2F)C1` [Compound I-152] are within 1.5-fold of each other in IC50: 75 nM for the first, 64 nM for the second.

Going from `CC(=O)N[C@@H](C)CO[C@H]1C[C@H](COc2ccc3nc(OC(C)C)sc3c2F)C1` [Compound I-153] to `CC(=O)N[C@@H](C)CO[C@H]1C[C@H](COc2ccc3nc(OC4CC4)sc3c2F)C1` [Compound I-154], the IC50 falls from 43 nM to 17 nM (2.5-fold).

Going from `CC(=O)N[C@@H](C)CO[C@H]1C[C@H](COc2ccc3nc(OC4CCC4)sc3c2F)C1` [Compound I-155] to `CC(=O)N[C@@H](C)CO[C@H]1C[C@H](COc2ccc3nc(OC4CC4)sc3n2)C1` [Compound I-172], the IC50 falls from 25 nM to 13 nM (1.9-fold).

Going from `CC(=O)N[C@@H](C)CO[C@H]1C[C@H](COc2ccc3nc(Oc4ccc(F)cc4)sc3c2F)C1` [Compound I-156] to `CC(=O)N[C@@H](C)CO[C@H]1C[C@](F)(COc2ccc3nc(C(C)(C)O)sc3c2F)C1` [Compound I-160], the IC50 rises from 12 nM to 809 nM (67-fold). The first is the more potent here.

Compared with `CCOc1nc2ccc(OC[C@H]3C[C@H](OC[C@H](C)NC(C)=O)C3)nc2s1` [Compound I-157], `CC(=O)N[C@@H](C)CO[C@H]1C[C@H](COc2ccc3nc(OC[C@H](C)F)sc3n2)C1` [Compound I-191] is 4-fold higher in IC50: 3 nM for the first, 12 nM for the second.

Going from `CC(=O)N[C@@H](C)CO[C@H]1CC[C@H](Oc2ccc3nc(O[C@H]4C[C@H](C#N)C4)sc3c2F)CC1` [Compound I-161] to `CC(=O)N[C@@H](C)CO[C@H]1CC[C@H](Oc2ccc3nc(O[C@H]4C[C@@H](C#N)C4)sc3c2F)CC1` [Compound I-162], the IC50 falls from 146 nM to 74 nM (2-fold). The second is the more potent here.

Compared with `CCOc1nc2ccc(OC[C@]3(F)C[C@@H](OC[C@H](C)NC(C)=O)C3)nc2s1` [Compound I-163], `CC(=O)N[C@@H](C)CO[C@H]1C[C@](F)(COc2ccc3nc(OC(C)CF)sc3n2)C1` (stereo partly shown) [Compound I-202] is 1.7-fold higher in IC50: 39 nM for the first, 66 nM for the second. The first is the more potent here.

Compared with `CCOc1nc2cc(F)c(OC[C@]3(F)C[C@@H](OC[C@H](C)NC(C)=O)C3)nc2s1` [Compound I-164], `CCOc1nc2cc(F)c(OC[C@H]3C[C@H](OC[C@H](C)NC(C)=O)C3)nc2s1` [Compound I-165] is 5.6-fold lower in IC50: 39 nM for the first, 7 nM for the second. The second is the more potent here.

First: CC(=O)N[C@@H](C)CO[C@H]1CC[C@H](Oc2ccc3nc(N4CC(C)(C)C4)sc3c2F)CC1 [Compound I-167]
Second: CC(=O)N[C@@H](C)CO[C@H]1CC[C@H](Oc2ccc3nc(N4CC(F)(F)C4)sc3c2F)CC1 [Compound I-175]
The IC50 of the first is 5.4-fold higher: 59 nM for the first, 11 nM for the second.

Going from `CC(=O)N[C@@H](C)CO[C@H]1CC[C@H](Oc2cc3sc(OC(C)CF)nc3cc2Cl)CC1` (stereo partly shown) [Compound I-168] to `CC(=O)N[C@@H](C)CO[C@H]1CC[C@H](Oc2cc3sc(OCC(F)F)nc3cn2)CC1` [Compound I-185], the IC50 falls from 95 nM to 44 nM (2.2-fold). The second is the more potent here.

`CC(=O)N[C@@H](C)CO[C@H]1C[C@H](COc2ccc3nc(OCC(F)F)sc3n2)C1` [Compound I-169] and `CC(=O)N[C@@H](C)CO[C@H]1C[C@H](COc2ccc3nc(OCC(C)C)sc3n2)C1` [Compound I-196] are within 1.5-fold of each other in IC50: 10 nM for the first, 12 nM for the second.

Going from `CC(=O)N[C@@H](C)CO[C@H]1C[C@H](COc2ccc3nc(OCC(F)(F)F)sc3n2)C1` [Compound I-170] to `CC(=O)N[C@@H](C)CO[C@H]1C[C@H](COc2ccc3nc(OCC(C)(F)F)sc3n2)C1` [Compound I-193], the IC50 rises from 6 nM to 12 nM (2-fold). The first is the more potent here.

First: CC(=O)N[C@@H](C)CO[C@H]1C[C@H](COc2ccc3nc(OC(C)C)sc3n2)C1 [Compound I-173]
Second: CC(=O)N[C@@H](C)CO[C@H]1C[C@H](COc2ccc3nc(OC(C)CF)sc3n2)C1 (stereo partly shown) [Compound I-194]
The IC50 of the first is 2.4-fold lower: 5 nM for the first, 12 nM for the second.

`CC(=O)N[C@@H](C)CO[C@H]1CC[C@H](Oc2ccc3nc(N4CCOCC4)sc3c2F)CC1` [Compound I-176] and `CC(=O)N[C@@H](C)CO[C@H]1CC[C@H](Oc2ccc3nc(N4CCC(F)(F)CC4)sc3c2F)CC1` [Compound I-188] are within 1.5-fold of each other in IC50: 42 nM for the first, 41 nM for the second.

First: CCOc1nc2ccc(O[C@H]3CC[C@H](OC[C@H](C)NC(C)=O)CC3)cc2s1 [Compound I-177]
Second: CCOc1nc2cnc(O[C@H]3CC[C@H](OC[C@H](C)NC(C)=O)CC3)cc2s1 [Compound I-179]
The IC50 of the first is 4.7-fold lower: 6 nM for the first, 28 nM for the second.

Compared with `CCOc1nc2ccc(O[C@H]3CC[C@H](OC[C@H](C)NC(C)=O)CC3)nc2s1` [Compound I-178], `CCOc1nc2cc(F)c(O[C@H]3CC[C@H](OC[C@H](C)NC(C)=O)CC3)nc2s1` [Compound I-186] is 1.7-fold higher in IC50: 3 nM for the first, 5 nM for the second. The first is the more potent here.

First: CC(=O)N[C@@H](C)CO[C@H]1C[C@H](COc2nc3sc(OCC(F)F)nc3cc2F)C1 [Compound I-180]
Second: CC(=O)N[C@@H](C)CO[C@H]1C[C@H](COc2nc3sc(OCC(F)(F)F)nc3cc2F)C1 [Compound I-181]
The IC50 of the first is 1.5-fold higher: 21 nM for the first, 14 nM for the second.

Going from `CC(=O)N[C@@H](C)CO[C@H]1C[C@H](COc2nc3sc(OC(C)C)nc3cc2F)C1` [Compound I-182] to `CC(=O)N[C@@H](C)CO[C@H]1C[C@H](COc2ccc3nc(OC4(C)CC4)sc3n2)C1` [Compound I-200], the IC50 rises from 12 nM to 30 nM (2.5-fold). The first is the more potent here.

First: CC(=O)N[C@@H](C)CO[C@H]1CC[C@H](Oc2cc3sc(OCC4CC4)nc3cn2)CC1 [Compound I-183]
Second: CC(=O)N[C@@H](C)CO[C@H]1CC[C@H](Oc2cc3sc(OCC(F)(F)F)nc3cn2)CC1 [Compound I-184]
The IC50 of the first is 3.9-fold lower: 14 nM for the first, 54 nM for the second.

Going from `CC(=O)N[C@@H](C)CO[C@H]1CC[C@H](Oc2ccc3nc(N4CCC(F)(F)C4)sc3c2F)CC1` [Compound I-189] to `CC(=O)N[C@@H](C)CO[C@H]1CC[C@](F)(COc2ccc3nc(OCC4CC4)sc3n2)CC1` [Compound I-201], the IC50 falls from 27 nM to 17 nM (1.6-fold). The second is the more potent here.

Going from `CC(=O)N[C@@H](C)CO[C@H]1C[C@H](COc2ccc3nc(OCC4(C#N)CC4)sc3n2)C1` [Compound I-192] to `CC(=O)N[C@@H](C)CO[C@H]1C[C@H](COc2ccc3nc(OCC4(C)CC4)sc3n2)C1` [Compound I-198], the IC50 falls from 61 nM to 5 nM (12-fold).

First: CC(=O)N[C@@H](C)CO[C@H]1C[C@H](COc2ccc3nc(OCC4(F)COC4)sc3n2)C1 [Compound I-195]
Second: CC(=O)N[C@@H](C)CO[C@H]1C[C@H](COc2ccc3nc(OCC4CC4(F)F)sc3n2)C1 (stereo partly shown) [Compound I-197]
The IC50 of the first is 1.9-fold higher: 28 nM for the first, 15 nM for the second. The second is the more potent here.

`CC(=O)N[C@@H](C)CO[C@H]1C[C@H](COc2ccc3nc(OCC4CCO4)sc3n2)C1` (stereo partly shown) [Compound I-199] gave an IC50 of 121 nM.
